In ChEMBL document CHEMBL4699592, “Nature-Inspired (di)Azine-Bridged Bisindole Alkaloids with Potent Antibacterial In Vitro and In Vivo Efficacy against Methicillin-Resistant Staphylococcus aureus” (J Med Chem, 2020):
Converted amounts (≈) assume the structure as drawn. The source made the active and inactive calls. The calls are words filed in the database; no cut-off is given here.

Legend:
[1] = system: Staphylococcus aureus; test: Bactericidal activity against […] Staphylococcus aureus ATCC 700699 assessed as colony forming units at 5 fold MIC measured after 24 hrs by time kill assay; type: functional
[2] = system: Klebsiella pneumoniae; test: Synergistic antibacterial activity against Klebsiella pneumoniae ATCC 700603 assessed as FIC after 24 hrs in presence of colistin by checkerboard assay relative to colistin; type: functional
[3] = system: Enterococcus faecalis; test: Antibacterial activity against Enterococcus faecalis ATCC 29212 at 0.78 to 100 uM after 24 hrs by broth microdilution method; type: functional, organism-based; settings: dose microM 0.78-100, time 24.0 hrs
[4] = Selectivity index, ratio of IC50 for cytotoxicity against human THP-1 cells to MIC90 for antibacterial activity against […] Staphylococcus aureus ATCC 700699; type: toxicity, cell-based; settings: read-out: Selectivity Index
[5] = Cytotoxicity against human CLS-54 cells assessed as reduction in cell viability at >12.5 uM measured after 48 hrs by resazurin dye based fluorescence assay; settings: cls-54, 48 h
[6] = system: Pseudomonas aeruginosa; test: Antibacterial activity against Pseudomonas aeruginosa ATCC 27853 measured after 24 hrs by broth microdilution method; type: functional
[7] = system: Cell membrane; test: Induction of cell membrane permeabilization in GFP-expressing Staphylococcus aureus ATCC 700699 assessed as increase in cellular ATP leakage at 5 fold MIC measured after 0.5 hrs by Bactiter-glo assay; type: subcellular
[8] = system: Staphylococcus aureus; test: Antibacterial activity against vancomycin-sensitive Staphylococcus aureus T144 infected in Balb/c mouse peritonitis-sepsis model assessed as increase in survival at 5 mg/kg, ip measured for 48 hrs; type: functional, organism-based
[9] = system: Escherichia coli; test: Synergistic antimicrobial activity against Escherichia coli ATCC BAA 2469 assessed as FIC after 24 hrs in presence of colistin by checkerboard assay relative to colistin; type: functional
[10] = system: Acinetobacter baumannii; test: Antibacterial activity against Acinetobacter baumannii ATCC BAA-1605 at 0.78 to 100 uM after 24 hrs by broth microdilution method; type: functional, organism-based; settings: dose microM 0.78-100, time 24.0 hrs
[11] = system: Acinetobacter baumannii; test: Synergistic antibacterial activity against Acinetobacter baumannii ATCC BAA-1605 assessed as FIC after 24 hrs in presence of colistin by checkerboard assay relative to test compound MIC; type: functional
[12] = system: Staphylococcus aureus; test: Antibacterial activity against […] Staphylococcus aureus ATCC 700699 after 24 hrs by broth microdilution method; type: functional
[13] = system: Staphylococcus aureus; test: Antibacterial activity against vancomycin-sensitive Staphylococcus aureus T144 infected in Balb/c mouse assessed as reduction in bacterial burden at 5 mg/kg applied topically measured after 12 days by colony counting method; type: functional, organism-based; settings: time 12.0 day
[14] = system: Escherichia coli; test: Synergistic antimicrobial activity against Escherichia coli ATCC BAA 2469 assessed as FICI after 24 hrs in presence of colistin by checkerboard assay; type: functional
[15] = system: Acinetobacter baumannii; test: Antibacterial activity against Acinetobacter baumannii ATCC BAA-1605 after 24 hrs by broth microdilution method; type: functional
[16] = system: Klebsiella pneumoniae; test: Antibacterial activity against Klebsiella pneumoniae ATCC 700603 after 24 hrs by broth microdilution method; type: functional
[17] = system: HEK293; test: Cytotoxicity against HEK293 cells assessed as reduction in cell viability at >12.5 uM measured after 48 hrs by resazurin dye based fluorescence assay; settings: human, hek293, 48 h
[18] = system: MRC5; test: Cytotoxicity against human MRC5 cells assessed as reduction in cell viability at >=12.5 uM measured after 48 hrs by resazurin dye based fluorescence assay; settings: mrc5, 48 h
[19] = Solubility of compound in pH 7.7 PBS buffer; type: physicochemical
[20] = system: Enterococcus faecalis; test: Antibacterial activity against Enterococcus faecalis ATCC 51299 at 0.78 to 100 uM after 24 hrs by broth microdilution method; type: functional, organism-based; settings: dose microM 0.78-100, time 24.0 hrs
[21] = system: Cell membrane; test: Induction of cell membrane permeabilization in methicillin resistant Staphylococcus aureus ATCC 700699 at 5 fold MIC measured at 5 mins interval for 2 hrs by propidium iodide staining based fluorescence assay
[22] = system: Pseudomonas aeruginosa; test: Synergistic antibacterial activity against Pseudomonas aeruginosa ATCC 27853 assessed as FIC after 24 hrs in presence of colistin by checkerboard assay relative to colistin; type: functional
[23] = system: Enterococcus faecium; test: Antibacterial activity against vancomycin-resistant Enterococcus faecium ATCC 35667 at 0.78 to 100 uM after 24 hrs by broth microdilution method; type: functional, organism-based; settings: dose microM 0.78-100, time 24.0 hrs
[24] = system: Staphylococcus aureus; test: Antibacterial activity against methicillin-resistant Staphylococcus aureus USA300 LAC at 0.15 to 25 uM incubated for 24 hrs under low pyruvate containing medium by resazurin dye based fluorescence assay; type: functional, organism-based; settings: dose microM 0.15-25, time 24.0 hrs
[25] = system: Cell membrane; test: Induction of cell membrane permeabilization in GFP-expressing Staphylococcus aureus ATCC 700699 assessed as increase in GFP efflux at 5 fold MIC measured after 6 hrs by fluorescence assay
[26] = system: Staphylococcus aureus; test: Bactericidal activity against […] Staphylococcus aureus ATCC 700699 assessed as reduction in bacterial viability at 5 fold MIC incubated for 6 hrs by time kill assay relative to control; type: functional
[27] = system: THP-1; test: Cytotoxicity against human THP-1 cells assessed as reduction in cell viability at >=12.5 uM measured after 48 hrs by resazurin dye based fluorescence assay; settings: thp-1, 48 h
[28] = system: Staphylococcus aureus; test: Antibacterial activity against methicillin-resistant Staphylococcus aureus USA300 LAC at 0.15 to 25 uM incubated for 24 hrs under low glucose medium by resazurin dye based fluorescence assay; type: functional, organism-based; settings: dose microM 0.15-25, time 24.0 hrs
[29] = system: Klebsiella pneumoniae; test: Synergistic antibacterial activity against Klebsiella pneumoniae ATCC 700603 assessed as FIC after 24 hrs in presence of colistin by checkerboard assay relative to test compound MIC; type: functional
[30] = system: Escherichia coli; test: Antimicrobial activity against Escherichia coli ATCC BAA 2469 after 24 hrs by broth microdilution assay; type: functional
[31] = system: Staphylococcus aureus; test: Antibacterial activity against methicillin-resistant pyruvate kinase deficient Staphylococcus aureus USA300 LAC at 0.15 to 25 uM incubated for 24 hrs under low pyruvate containing medium by resazurin dye based fluorescence assay; type: functional, organism-based; settings: dose microM 0.15-25, time 24.0 hrs
[32] = system: Enterococcus faecium; test: Antibacterial activity against vancomycin-resistant Enterococcus faecium ATCC 700221 at 0.78 to 100 uM after 24 hrs by broth microdilution method; type: functional, organism-based; settings: dose microM 0.78-100, time 24.0 hrs
[33] = system: Acinetobacter baumannii; test: Synergistic antibacterial activity against Acinetobacter baumannii ATCC BAA-1605 assessed as FIC after 24 hrs in presence of colistin by checkerboard assay relative to colistin; type: functional
[34] = system: Staphylococcus aureus; test: Antibacterial activity against vancomycin-sensitive Staphylococcus aureus T144 infected in Balb/c mouse assessed as increase in wound healing at 5 mg/kg applied topically measured daily for 12 days by microscopic analysis; type: functional, organism-based; settings: time 12.0 day
[35] = system: Staphylococcus aureus; test: Antibacterial activity against methicillin susceptible Staphylococcus aureus ATCC 25923 at 0.78 to 100 uM after 24 hrs by broth microdilution method; type: functional, organism-based; settings: dose microM 0.78-100, time 24.0 hrs
[36] = system: Erythrocyte; test: Hemolytic activity against sheep erythrocytes up to 100 uM measured after 1 hr; type: ADME, cell-based, Ovis aries
[37] = Selectivity index, ratio of IC50 for cytotoxicity against human MRC5 cells to MIC90 for antibacterial activity against […] Staphylococcus aureus ATCC 700699; type: toxicity, cell-based; settings: read-out: Selectivity Index
[38] = Solubility of compound in pH 7.7 DMSO:PBS solution; type: physicochemical; settings: buffer
[39] = system: Klebsiella pneumoniae; test: Synergistic antibacterial activity against Klebsiella pneumoniae ATCC 700603 assessed as FICI after 24 hrs in presence of colistin by checkerboard assay; type: functional

Compound: Clc1ccc2[nH]cc(-c3cccc(-c4c[nH]c5ccc(Cl)cc45)n3)c2c1
- Activity [1]: <10 CFU/ml
- FIC [2]: 0.125
- Activity [3]: Active
- selectivity ratio [4]: 32
- Activity [5]: Toxic
- MIC [6]: > 100 µM
- Activity [7]: Active
- Activity [8]: Active
- FIC [9]: 0.064
- Activity [10]: Active
- FIC [11]: <=0.0625
- MIC90 [12]: 0.2 µM (≈ 0.0757 µg/mL)
- Activity [13]: Active
- fractional inhibitory concentration index (FICI) [14]: <=0.0953
- MIC [15]: > 100 µM
- MIC [16]: > 100 µM
- Activity [17]: Toxic
- Activity [18]: Toxic
- solubility [19]: Insoluble
- Activity [20]: Active
- Activity [21]: Active
- FIC [22]: 0.5
- Activity [23]: Active
- Activity [24]: Active
- Activity [25]: Active
- fold change (FC) [26]: 10000
- Activity [27]: Toxic
- Activity [28]: Active
- FIC [29]: <=0.125
- MIC [30]: > 100 µM
- Activity [31]: Active
- Activity [32]: Active
- FIC [33]: 0.25
- Activity [34]: Active
- Activity [35]: Active
- Activity [36]: Non-Toxic
- selectivity ratio [37]: 32
- solubility [38]: Insoluble
- fractional inhibitory concentration index (FICI) [39]: <=0.25
